Measurements published in patent US7135497B1, “Treating neural conditions resulting from spinal cord contusions and other causes” (New York Medical College, priority 2000, dated 2006).

Legend:
[1] = test system: spinal cord contused rats; test: Locomotor recovery (BBB scale) after weight-drop spinal cord contusion at T10; assay type: in vivo, rat
Experimental: (§1) Adult female Wistar rats (˜245 g) were obtained from Charles River Breeding Laboratories and housed in a temperature-regulated (23° C.) animal facility. The spinal cords were contused with a weight drop apparatus similar to the NYU impactor (See also Basso, D. M., M. S. Beattie, and I. C. Breslmahan, 1996, Graded histological and locomotor outcomes after spinal cord contusion using the NYU weight-drop device versus transection, Exp. Neurol. 139:244–256, incorporated by reference) at the level of T10. Prior to surgery, the rats were anesthetized with an injection of pentobarbital sodium (60 mg/kg ip) and laminectomy was performed aseptically at T9–T10 to expose the spinal cord. The spinous processes at T8 and T11 were fixed with clamps to prevent movement during contusion. Body temperature was maintained at 37° C. during the period of anesthesia with a temperature-controlled heating pad and rectal thermometer. Graded injuries were produced in groups of rats by dropping a 10 g rod with a tip diameter of 2.5 mm from heights of either 6.25, 12.5, 25 or 50 mm as in the experiments of Basso identified above. Following contusion, each incision was closed with woundclips. An additional four groups of identically contused rats received clenbuterol received (from Chinoin, Mexico City) that was administered by adding it to the drinking water at a dose of 9 mg/L. This concentration delivers clenbuterol at a rate of 1.6 mg/kg body wt./day. The animals had access to water and food in their cages immediately after recovery from surgery and throughout the experiment. Water consumption is not believed to be affected by the addition of clenbuterol. Oral dosing is particularly effective over prolonged periods because clenbuterol readily enters the circulation via the gut, has high receptor affinity and a relatively long half-life. In all, 8 treatment groups (Table I) were examined. […]
Recovery of locomotor function was determined with BBB scale as previously described. […] For the three days following contusion and at one week intervals thereafter for a total of six weeks, each rat was scored for locomotor function according to the BBB scale. […] For several rats in treatment groups receiving 50 mm weight drops, treatment conditions became known and were scored by one observer. […]
To confirm that salbutamol, a β2-adrenoceptor agonist, can enhance recovery of locomotor function following spinal cord injury. Groups of untreated and salbutamol-treated rats were evaluated with the 21 point Basso, Beattie and Bresnahan (BBB) scale (FIG. 9) following spinal cord contusion with a weight-drop device (10 g, 25 mm drop), Salbutamol was administered via subcutaneously implanted osmotic minipumps (Alzet) that delivered 1 mg/kg body weight/day during the 28 day recovery period. […]

[2] = test system: cultured hippocampal neurons; details: in vitro; the NGF protected cultured hippocampal neurons from glutamate excitotoxicity; cited from earlier work
[3] = test system: motor neuron degeneration (Mnd) mice; test: Motoneuron counts and abnormal eccentric nuclei in the lumbar spinal cord; assay type: in vivo, mouse
[4] = test system: motor neuron degeneration (Mnd) mice; test: Hindlimb muscle weight in Mnd and WT mice; assay type: in vivo, mouse; details: 9 mg/L in drinking water
Experimental: (§2) Forelimb and hindlimb grip strength was measured in groups of Mnd and wild type (WT) mice that were either treated with clenbuterol in the drinking H2O (9 mg/L) until 37 weeks of age or were untreated. Forelimb and hindlimb grip strength was reduced 44–66% in Mnd compared to WT mice (FIG. 6). Clenbuterol caused relative increases in forelimb grip strength that were greater in Mnd (75%) compared to WT (20%, P<0.05, t test) mice. […] These effects of genotype and clenbuterol treatment were paralleled by similar changes in muscle mass. Thus the hindlimb soleus and extensor digitorum longus muscles were reduced 27–32% in Mnd compared to WT mice (FIG. 7). Clenbuterol caused relative increases of 46% and 29% in soleus weight in Mnd and Wt mice, respectively.

[5] = test system: motor neuron degeneration (Mnd) mice; test: Forelimb and hindlimb grip strength in Mnd and WT mice; assay type: in vivo, mouse; details: 9 mg/L in drinking water until 37 weeks of age
Experimental: as §2

interleukin-6 secretion = details: cited from earlier work
[6] = in vivo; cited from earlier work
[7] = test system: motor neuron degeneration (Mnd) mice; test: Behavioral tests of walking and hindlimb splaying (Messer and Flaherty), number of abnormal trials; assay type: in vivo, mouse; details: of 50 trials per week, from 31 to 37 weeks of age, clenbuterol-treated n=5, P<0.01 versus untreated
Experimental: Behavioral tests developed by Messer and Flaherty in their original description of the Mnd mice were also performed. As described in their publication (J. Neurogenetics 3:345–355, 1986), incorporated by reference, five tests of different aspects of walking and hindlimb splaying are run each week with 10 trials for each test for a total of 50 trials. The mean number of abnormal trials occurring in clenbuterol-treated (n=5) and untreated (n=7) Mnd mice were determined until the mice were 37 weeks of age at the end of the experiment (FIG. 8). Beginning at 31 weeks of age, there is a marked worsening of behavioral scores. […] The frequency of abnormal motoneurons in each mouse was highly correlated with locomotor scores. Clenbuterol reduced the frequency of abnormal motoneurons to 8.3±0.7% (P<0.015) indicating a neurotrophic effect of β2-agonist treatment.

[8] = test system: spinal cord contused rats; test: Spinal cord histomorphometry: % spared tissue at the contusion center; assay type: in vivo, rat; details: 6 weeks, 9 mg/L in drinking water
Experimental: as §1, with “examined. All of the procedures involving vertebrate animals were approved by the Institutional Animal Care and Use Committee of New York Medical College.” for “examined.”

brain ischemia = details: in vivo; cited from earlier work

CC(C)(C)NCC(O)c1ccc(O)c(CO)c1 (stereo not shown) [salbutamol]
recovery of locomotor function (BBB scale) ([1]; 10 g, 25 mm drop, 1 mg/kg body weight/day by subcutaneous osmotic minipump, 28 days, versus untreated control, P<0.05): significantly greater

CC(C)(C)NCC(O)c1cc(Cl)c(N)c(Cl)c1 (stereo not shown) [clenbuterol]
release of NGF [2]: caused the release of NGF
motoneuron counts in the lumbar spinal cord [3]: not significantly reduced in Mnd mice or affected by clenbuterol
frequency of abnormal motoneurons (abnormal eccentric nuclei) ([3]; clenbuterol-treated, untreated Mnd 12.6±0.9%, WT 2.3±0.2%, P<0.015): 8.3±0.7%
improvement in final BBB score due to clenbuterol ([1]; 25 mm weight drop, versus untreated, 6 weeks): 9.3 levels
increase in BBB score ([1]; 50 mm weight drop, fourth, fifth and sixth weeks, versus untreated): 5.1–5.8 levels
mean of the final BBB scores ([1]; mean ±SE over the four clenbuterol-treated groups (6.25-50 mm weight drops), 6 weeks, 9 mg/L in drinking water, untreated 8.0±2.9, P<0.05): 13.2±1.5
increase in extensor digitorum longus muscle weight ([4]; Mnd mice): 21%
relative increase in soleus weight ([4]; Mnd mice): 46%
relative increase in soleus weight ([4]; Wt mice): 29%
increase in hindlimb grip strength ([5]; Mnd mice): 29%
relative increase in forelimb grip strength ([5]; Mnd mice): 75%
effect on hindlimb strength ([5]; WT mice): did not significantly affect
relative increase in forelimb grip strength ([5]; WT mice): 20%
secretion of IL-6 (interleukin-6 secretion): greatly increases secretion of IL-6
blood-brain barrier passage [6]: crosses the blood-brain barrier
mean number of abnormal trials [7]: 6.3±1.6
sparing of spinal cord tissue accounted for by treatment ([8]; 12.5 mm weight drop): 23%
sparing of spinal cord tissue accounted for by treatment ([8]; 25 mm weight drop): 33%
sparing of spinal cord tissue accounted for by treatment ([8]; 50 mm weight drop): 34%
effect on hippocampal neurons following ischemia (brain ischemia): neuroprotective effects
infarct volume due to brain ischemia (brain ischemia): reduced infarct volume
